How the values were obtained:
mouse cell line P388 = settings: cited from earlier work
Notch2 (N2^IC) = assay: Nuclear Notch2 activity in B-CLL cells by EMSA (band shift assay); assay type: cell-based, human; settings: B-CLL cells, 0.2 μM gliotoxin, 24 h
Description: FIG. 3: Gliotoxin is a potent Notch2 trans-activation inhibitor in B-CLL cells. (A) EMSA showing the inhibition of DNA-bound Notch2IC complexes in the presence of 0.2 μg Gliotoxin. B-CLL samples (n=10) were cultured in the presence of 1 ng/ml TPA with or without 0.2 μM Gliotoxin for 24 hours. Nuclear extracts were subjected to EMSA using a oligonucleotide probe spanning a well defined CBF1/NotchIC binding site derived from the CD23a promoter. (B). Corresponding FACS analysis (plus 10 additional B-CLL samples) showing the downregulation of the Notch2 target gene CD23 as well as the induction of apoptosis of Gliotoxin treated B-CLL samples. Columnes represent the percentage of CD19^+CD23^+ (grey bars) and apoptotic cells (black bars: including early apoptotic cells single positive for AnnexinV, and late apoptotic cells double positive for AnnexinV and probidium iodide), respectively.
As drug screening model, a cell culture system was established which conserves the phenotype of freshly isolated B-CLL cells (3×10^6 B-CLL cells/ml RPMI medium+10% FCS, supplemented with 1 ng/ml of TPA). Notch2 activity in the cell nucleus is determined by means of EMSA (electrophoretic mobility shift assay) experiments, and the cell viability (Probidium iodide/annexinV) and CD23 expression (Notch2 target gene) is determined by means of FACS (flow cytometry) analyses, respectively. […]

Notch2 = Notch2 activity band shift assay in Panc-1; assay type: cell-based, human; settings: Panc-1, 200 nM gliotoxin, 24 h
Description: FIG. 10 a-b: Effects of gliotoxin on Notch2 regulation and apoptosis. The melanoma cell line 518A2 (A) and the pancreatic cancer cell line Panc-1 (B) were treated with 200 nM gliotoxin or vehicle control for 24 h Notch2 activity was analysed by band shift assay. Apoptosis was measured as annexin V and 7-AAD double positivity by FACS. Data are given as percentage of apoptotic cells ±standard deviation.
500,000 cells were seeded on 12 cm^2 plates for 24 h and then treated with 200 nM gliotoxin. At the time points as indicated cells were harvested and immediately frozen at −80° C. The band shift assay was performed as described for B-CLL.

[1] = tested on: PBMCs from healthy donors; assay: Apoptosis of control PBMCs from healthy donors by FACS; assay type: cell-based, human; settings: 0.2 μM gliotoxin, 4 hours
Description: FIG. 4: Gliotoxin induces apoptosis in unstimulated as well as in TPA-stimulated B-CLL cells within 4 hours. Normal PBMCs (peripheral blood mononuclear cells) from healthy donors show a markedly lower Notch2 activity. Although gliotoxin inhibits Notch2 also in normal, TPA-stimulated cells, the gliotoxin-caused apoptosis rate is markedly lower in normal cells as compared to B-CLL cells. Non-stimulated and TPA stimulated PBMC's from healthy donors (HD) are less sensitive to 0.2 μM Gliotoxin despite a basal Notch2 activity. PBMC's and CLL cells were incubated with 0.2 μM Gliotoxin with or without TPA for 4 hours and the Notch2 activity as well as the percentage of apoptotic cells were determined by EMSA and FACS analysis, respectively.
After 4 hours of gliotoxin treatment, massive signs of the starting apoptosis (AnnexinV+) could already be recognized in B-CLL cells. This effect was increased by TPA (a phorbol ester which stimulates the activation of lymphocytes).

[2] = tested on: HeLa cells (cervix carcinoma); assay: Cell count analysis HeLa; assay type: cell-based, human; settings: 0.2 μM gliotoxin, within 72 hours
Description: (§1) FIG. 8 a-d: Effects of gliotoxin on cell counts of various human tumour cell lines in vitro. Cell counts of a) hepatocellular carcinoma cell lines HepG2, Huh7, SNU398, Hep3b, HeLa (cervix) and the cholangiocarcinoma cell line NEC as well as b) the pancreatic cancer cell line Panc-1 and the melanoma cell lines d) MelJuso, Meljuso-Bcl-2 (+) and 607B after 72 h treatment with 200 nM gliotoxin; c-d) Cell count dose range experiments with c) pancreatic carcinoma cell lines Panc-1 and MiaPaCa as well as melanoma cell lines MelJuso, 518A2 and 607B using 25, 50 100 and 200 nM gliotoxin for 24 h. All data are given relative to control ±standard deviation.
(§2) Tumour cells were seeded at a density of 10,000 cells/well in 24-well plates. 24 h after seeding, medium containing gliotoxin was added to yield desired concentrations of gliotoxin. At time points indicated, culture medium was removed by suction. Adherent cells were washed with DPBS (Cambrex, Verviers, Belgium) and incubated with trypsin (Gibco) at 37° C. Detached cells were transferred to test tubes containing Cellpack isotonic fluid (Sysmex Europe, Bornbarch, Germany) and counted with a Coulter Z1 electronic cell counter (Beckman Coulter, Bedford, UK).

[3] = tested on: Hep3B (hepatocellular carcinoma); assay: Cell count analysis Hep3B; assay type: cell-based, human; settings: 200 nM gliotoxin, 72 h
Description: as §1, §2

[4] = tested on: HepG2 (hepatocellular carcinoma); assay: Cell count analysis HepG2; assay type: cell-based, human; settings: HepG2, 200 nM gliotoxin, 72 h
Description: as §1, §2

CN1C(=O)[C@]23CC4=CC=C[C@H](O)[C@H]4N2C(=O)[C@@]1(CO)SS3 [gliotoxin, [3R-(3α,5aβ,6β,10aα)]-2,3,5a,6-tetrahydro-6-hydroxy-3-(hydroxymethyl)-2-methyl-10H-3,10a-epi-dithiopyrazino[1,2-a]indol-1,4-dion]
IC50 with regard to cell viability (mouse cell line P388): 5,8 ng/ml
transcriptional Notch2 activity (EMSA) (Notch2 (N2^IC)): dramatic loss
Notch2 activity (band shift assay) (Notch2): only partly inhibited
apoptosis ([1]; TPA-stimulated PBMCs): 17%
apoptosis ([1]; non-stimulated PBMCs): 20%
effect on the cell count [2]: no significant effect
mean reduction of cell numbers compared to vehicle treated controls [3]: 88%
mean reduction of cell numbers compared to vehicle treated controls [4]: 67%
